Experimental data taken from patent US8518952B2, “6 substituted 2-heterocyclylamino pyrazine compounds as CHK-1 inhibitors” (Pfizer Inc., priority 2008, dated 2013).
Structures can show the parent of a compound that is named as a salt.

Target: T1, CHK1 (kinase domain) (Homo sapiens, UniProt O14757)
T1 construct: a solution containing 1 nM of CHK1 (kinase domain)
T1 sequence (O14757 9-265 limits assumed): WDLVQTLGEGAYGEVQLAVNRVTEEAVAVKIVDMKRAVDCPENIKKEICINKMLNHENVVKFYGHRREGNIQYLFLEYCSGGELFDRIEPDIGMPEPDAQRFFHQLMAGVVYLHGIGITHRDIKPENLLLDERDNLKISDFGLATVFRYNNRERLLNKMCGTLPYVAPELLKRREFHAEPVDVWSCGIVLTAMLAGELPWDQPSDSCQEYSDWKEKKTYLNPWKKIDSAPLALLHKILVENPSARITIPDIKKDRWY
Test: CHK1 Ki determination, spectrophotometric coupled (pyruvate kinase/lactate dehydrogenase) assay
Type: biochemical
Conditions: CHK-1 kinase domain; for Ki: 150 uM ATP, 125 uM Syntide 2; for percent inhibition (where no Ki data is available): inhibitor concentration not given
Description: After 15 min pre-incubation, the enzymatic reaction was initiated by the simultaneous addition of Syntide 2 peptide (125 uM, final concentration) and ATP (150 uM, final concentration). The kinase-catalyzed production of ADP from ATP that accompanied phosphoryl transfer to the substrate Syntide 2 was coupled to the oxidation of NADH through the activities of pyruvate kinase and lactate dehydrogenase. NADH conversion to NAD^+ was monitored by the decrease in absorbance at 340 nm (ε=6.22 cm^−1 mM^−1) using a microplate reader from Molecular Devices Spectormax Plus (Sunnyvale, Calif.) or BMG LABTECH Inc (Offenburg, Germany).
The inhibition of CHK1 was analyzed by fitting the data to the following equation to determine Kiapp:
[formula] where [E]o and [I]o are the active enzyme and inhibitor concentration, respectively; Ki is the inhibition binding constant and Km the Michaelis-Menten constant for ATP; Vi and Vo are the rates of substrate oxidation in the presence of and in the absence of inhibitor, respectively. EC50 Determination (Cellular Assay)
Under the “Ki” column, data entries in the format of “%” are percent inhibition data where no Ki data is available. Data entry under the “EC50” column with an * are data obtained using Mia Paca-2 cells rather than HeLa cells. Data is not available where noted as n/a.

| SMILES | Ki [µM] | percent inhibition (where no Ki data is available) |
| --- | --- | --- |
| CCOc1cc2ncn(-c3cncc(N[C@H]4CN[C@H](COC)C4)n3)c2cn1 [Example 297, [6-(6-Ethoxy-imidazo[4,5-c]pyridin-3-yl)-pyrazin-2-yl]-((3R,5S)-5-methoxymethyl-pyrrolidin-3-yl)-amine] | 0.105 | – |
| Cc1cn2c(-c3cncc(N[C@@H]4CCCN[C@H]4C)n3)cnc2s1 [Example 133, 6-(2-methylimidazo[2,1-b][1,3]thiazol-5-yl)-N-[(2S,3R)-2-methylpiperidin-3-yl]pyrazin-2-amine] | 0.0214 | – |
| c1ccn2c(-c3cncc(N[C@@H]4CCCNC4)n3)nnc2c1 [Example 8, N-[(3R)-piperidin-3-yl]-6-[1,2,4]triazolo[4,3-a]pyridin-3-ylpyrazin-2-amine] | – | 16.7%^ |
| Cc1ncc(-c2cncc(N[C@@H]3CNC[C@@H]3F)n2)n1C [Example 76, 6-(1,2-dimethyl-1H-imidazol-5-yl)-N-[(3R,4S)-4-fluoropyrrolidin-3-yl]pyrazin-2-amine] | – | 1.6%^ |
| F[C@@H]1CNC[C@H]1Nc1cncc(-c2cnc3cccnn23)n1 [Example 82, N-[(3R,4R)-4-fluoropyrrolidin-3-yl]-6-imidazo[1,2-b]pyridazin-3-ylpyrazin-2-amine] | 1 | – |
| COc1ccn2c(-c3cncc(N[C@H]4CNC[C@H]4C4CCCC4)n3)cnc2c1 [Example 210, N-[(3R,4R)-4-cyclopentylpyrrolidin-3-yl]-6-(7-methoxyimidazo[1,2-a]pyridin-3-yl)pyrazin-2-amine] | 0.00285 | – |
| F[C@@H]1CNC[C@@H]1Nc1cncc(-c2cnc3cccnn23)n1 [Example 81, N-[(3S,4R)-4-fluoropyrrolidin-3-yl]-6-imidazo[1,2-b]pyridazin-3-ylpyrazin-2-amine, acetate salt] | 1 | – |
| Cc1ncc(-c2cncc(N[C@@H]3CCCNC3)n2)n1Cc1ccccc1 [Example 72, 6-(1-benzyl-2-methyl-1H-imidazol-5-yl)-N-[(3R)-piperidin-3-yl]pyrazin-2-amine] | – | 1.4%^ |
| Cc1nc2ccccn2c1-c1cncc(N[C@@H]2CCCNC2)n1 [Example 153, 6-(2-methylimidazo[1,2-a]pyridin-3-yl)-N-[(3R)-piperidin-3-yl]pyrazin-2-amine] | – | 2.2%^ |
| Cc1ncc(-c2cncc(N[C@@H]3CC[C@@H](C)NC3)n2)n1Cc1ccccc1 [Example 68, 6-(1-benzyl-2-methyl-1H-imidazol-5-yl)-N-[(3R,6R)-6-methylpiperidin-3-yl]pyrazin-2-amine] | – | 0% |
| C[C@H]1CC[C@@H](Nc2cncc(-c3cnc4cccnn34)n2)CN1 [Example 83, 6-imidazo[1,2-b]pyridazin-3-yl-N-[(3R,6S)-6-methylpiperidin-3-yl]pyrazin-2-amine, acetate salt] | 1 | – |
| CCOc1cc2ncn(-c3cncc(N[C@H]4CNCC[C@@H]4OC)n3)c2cn1 [Example 298, [6-(6-Ethoxy-imidazo[4,5-c]pyridin-3-yl)-pyrazin-2-yl]-((3S,4S)-4-methoxy-piperidin-3-yl)-amine] | 0.00527 | – |
| Cc1ncc(-c2cncc(NC3CCCCNC3)n2)n1C (centres unmarked) [Example 69, N-[6-(1,2-dimethyl-1H-imidazol-5-yl)pyrazin-2-yl]azepan-3-amine] | – | 0.60%^ |
| C[C@@H]1NCCC[C@H]1Nc1cncc(-c2cnc3ccc(F)cn23)n1 [Example 95, 6-(6-fluoroimidazo[1,2-a]pyridin-3-yl)-N-[(2S,3R)-2-methylpiperidin-3-yl]pyrazin-2-amine] | 0.0375 | – |
| c1cc2ncn(-c3cncc(N[C@@H]4CCNC4)n3)c2cc1OCC1CC1 [Example 220, 6-[6-(cyclopropylmethoxy)-1H-benzimidazol-1-yl]-N-[(3R)-pyrrolidin-3-yl]pyrazin-2-amine] | – | 17.9%^ |
| Cc1ncc(-c2cncc(N[C@@H]3CC[C@@H](C)NC3)n2)n1C [Example 71, 6-(1,2-dimethyl-1H-imidazol-5-yl)-N-[(3R,6R)-6-methylpiperidin-3-yl]pyrazin-2-amine] | – | 0% |
| Cc1ncc(-c2cncc(N[C@@H]3CCNC3)n2)n1C [Example 73, 6-(1,2-dimethyl-1H-imidazol-5-yl)-N-[(3R)-pyrrolidin-3-yl]pyrazin-2-amine] | – | 0% |
| Cc1cccc2ncc(-c3cncc(N[C@@H]4CCNC4)n3)n12 [Example 58, 6-(5-Methylimidazo[1,2-a]pyridin-3-yl)-N-[(3R)-pyrrolidin-3-yl]pyrazin-2-amine] | – | 0% |
| C[C@H]1NCCC[C@H]1Nc1cncc(-c2cnc3ccc(F)cn23)n1 [Example 164, 6-(6-fluoroimidazo[1,2-a]pyridin-3-yl)-N-[(2R,3R)-2-methylpiperidin-3-yl]pyrazin-2-amine] | 0.0184 | – |
| c1cnn2c(-c3cncc(NC4CCCCNC4)n3)cnc2c1 (centres unmarked) [Example 80, N-(6-imidazo[1,2-b]pyridazin-3-ylpyrazin-2-yl)azepan-3-amine, acetate salt] | 1 | – |
| Cc1cn2c(-c3cncc(N[C@H]4CCCN[C@@H]4C)n3)cnc2s1 [Example 177, 6-(2-methylimidazo[2,1-b][1,3]thiazol-5-yl)-N-[(2R,3S)-2-methylpiperidin-3-yl]pyrazin-2-amine] | – | 49.1%^ |
| Cc1ncc(-c2cncc(N[C@@H]3CCNC3)n2)n1Cc1ccccc1 [Example 75, 6-(1-benzyl-2-methyl-1H-imidazol-5-yl)-N-[(3R)-pyrrolidin-3-yl]pyrazin-2-amine] | – | 6.7%^ |
| Cc1cccn2c(-c3cncc(N[C@@H]4CCCNC4)n3)cnc12 [Example 207, 6-(8-methylimidazo[1,2-a]pyridin-3-yl)-N-[(3R)-piperidin-3-yl]pyrazin-2-amine] | – | 21% |
| C[C@@H]1NCCC[C@H]1Nc1cncc(-c2cnc3ccccn23)n1 [Example 131, 6-imidazo[1,2-a]pyridin-3-yl-N-[(2S,3R)-2-methylpiperidin-3-yl]pyrazin-2-amine] | – | 0% |
| FC[C@@H]1CNC[C@@H]1Nc1cncc(-c2cnc3sccn23)n1 [Example 182, N-[(3R,4R)-4-(fluoromethyl)pyrrolidin-3-yl]-6-(imidazo[2,1-b][1,3]thiazol-5-yl)pyrazin-2-amine] | – | 98.9%^ |
| c1ccc2c(c1)ncn2-c1cncc(N[C@H]2CCCNC2)n1 [Example 63, 6-(1H-benzimidazol-1-yl)-N-[(3S)-piperidin-3-yl]pyrazin-2-amine] | – | 35.5%^ |
| c1ccc2c(c1)ncn2-c1cncc(NC2CCNC2)n1 (centres unmarked) [Example 208, 6-(1H-benzimidazol-1-yl)-N-(pyrrolidin-3-yl)pyrazin-2-amine] | 0.195 | – |
| Cc1ncc(-c2cncc(N[C@H]3CNC[C@@H]3F)n2)n1C [Example 77, 6-(1,2-dimethyl-1H-imidazol-5-yl)-N-[(3S,4S)-4-fluoropyrrolidin-3-yl]pyrazin-2-amine] | – | 0% |
| c1cc2c(-c3cncc(N[C@@H]4CCCNC4)n3)cnn2cn1 [Example 299, (R)-Piperidin-3-yl-(6-pyrazolo[1,5-c]pyrimidin-3-yl-pyrazin-2-yl)-amine] | 0.00411 | – |
